We go through seven substances from patent publication US9976141B2, “Compositions and methods for inhibiting gene expression of Hif2alpha” (Arrowhead Madison Inc., priority 2015, dated 2018).

The series relates to human (tumor) Hif2α (EPAS1) mRNA. Description: Hif2α knockdown in orthotopic RCC tumor bearing mice, single injection of RNAi trigger-delivery polymer conjugate, RT-qPCR (Table 7). Type of series: in vivo. The settings on record: single tail vein injection, relative to isotonic glucose. The procedure: A pCR3.1 expression vector expressing the reporter gene secreted alkaline phosphatase (SEAP) under the CMV promoter was prepared by directional cloning of the SEAP coding sequence PCR amplified from Clontech's pSEAP2-basic vector. Convenient restriction sites were added onto primers used to amplify the SEAP coding sequence for cloning into the pCR3.1 vector (Invitrogen). The resultant construct pCR3-SEAP was used to create a SEAP-expressing A498 ccRCC cell line. Briefly, pCR3-SEAP plasmid was transfected into A498 ccRCC cells by electroporation following manufacturer's recommendation. Stable transfectants were selected by G418 resistance. Selected A498-SEAP clones were evaluated for SEAP expression and integration stability.
Female athymic nude mice were anesthetized with ˜3% isoflourane and placed in the right lateral decubitus position. A small, 0.5-1 cm, longitudinally abdominal incision in the left flank was made. Using a moist cotton swab, the left kidney was lifted out of the peritoneum and gently stabilized. Just before injection, a 1.0 ml syringe was filled with the cell/Matrigel mixture and a 27 gauge needle catheter was attached to the syringe tip. The filled syringe was then attached to a syringe pump (Harvard Apparatus, model PHD2000) and primed to remove air. The tip of a 27-gauge needle catheter attached to a syringe was inserted just below the renal capsule near the caudal pole and the tip of the needle was then carefully advanced cranially along the capsule 3-4 mm. A 10 μl aliquot of 2:1 (vol:vol) cell/matrigel mixture containing about 300,000 cells was slowly injected into the kidney parenchyma using a syringe pump. The needle was left in the kidney for 15-20 seconds to ensure the injection was complete. The needle was then removed from the kidney and a cotton swab was placed over the injection site for 30 seconds to prevent leakage of the cells or bleeding. The kidney was then gently placed back into the abdomen and the abdominal wall was closed. Serum was collected every 7-14 days after implantation to monitor tumor growth using a commercial SEAP assay kit. For most studies, tumor mice were used 5-6 weeks after implantation, when tumor measurements were typically around 4-8 mm.
RGD targeted HiF2α-RNAi trigger delivery conjugates. Delivery polymers were modified using RGD-PEG-HyNic, RGD-PEG-ACit-PNP, or RDG-PEG-FCitFP-TFP and PEG-dipeptide modifying agents. The indicated amount of polymer 126 or 100A polymer was modified with 8×PEG12-ACit-PABC-PNP/0.5× aldehyde-PEG24-FCit-PABC-PNP (with RGD mimic #1-PEG-HyNic using protocol #1) and the indicated amount of the indicated Hif2α RNAi trigger. Polymer 064 was modified according to protocol 7. Kidney RCC tumor-bearing mice were generated as described and treated with a single tail vein injection of isotonic glucose (G1) or the indicated Hif2α RNAi trigger-delivery polymer conjugate. Mice were euthanized at the indicated time after injection and total RNA was prepared from kidney tumor using Trizol reagent following manufacturer's recommendation. Relative HiF2α mRNA levels were determined by RT-qPCR as described below and compared to mice treated with delivery buffer (isotonic glucose) only.
In preparation for quantitative PCR, total RNA was isolated from tissue samples homogenized in TriReagent (Molecular Research Center, Cincinnati, Ohio) following the manufacturer's protocol. Approximately 500 ng RNA was reverse-transcribed using the High Capacity cDNA Reverse Transcription Kit (Life Technologies). For human (tumor) Hif2α (EPAS1) expression, pre-manufactured TaqMan gene expression assays for human Hif2α (Catalog #4331182) and CycA (PPIA) Catalog #: 4326316E) were used in biplex reactions in triplicate using TaqMan Gene Expression Master Mix (Life Technologies) or VeriQuest Probe Master Mix (Affymetrix). […]

The mark [1] stands for this setting: RNAi trigger 80 μg, polymer 126 400 μg.

As for “AD01424 (antisense TUUCAUGAAAUCGUUACGUCGGCUAU; sense UAUAUCGACGUAACGAUUUCAUGAAA; Hif2alpha RNAi agent antisense strand; modified_base 25 modified base = “2′-hydroxy corresponding nucleoside”; modified_base 2,4,6,8,10,12,14,16,18,20 /mod_base = “2′-deoxy-2′-fluoro corresponding nucleoside”; modified_base 3,5,7,11,13,15,17,19,21,22,23,24,26 /mod_base = “2′-O-methyl corresponding nucleoside”; modified_base 9 /mod_base = “2′-3′ seco corresponding nucleotide”; modified_base 2,3,23,; Hif2alpha RNAi agent sense strand; modified_base 2,4 modified base = “2′-hydroxy corresponding nucleoside”; modified_base 6,8,10,12,14,16,18,20,22,24 /mod_base = “2′-deoxy-2′-fluoro corresponding)”, the “Relative Expression day 4 (Hif2α mRNA in kidney tumor)” value (RNAi trigger 150 μg, polymer 100A 300 μg) is listed as 0.54. Take “AD01020 (antisense TGUAAAACAAUUGUGUACUTT; sense AGUACACAAUUGUUUUACAT; Hif2alpha RNAi agent antisense strand; modified_base 2,4,8,10,12,14,16,18 /mod_base = “2′-deoxy-2′-fluoro corresponding nucleoside”; modified_base 3,5,7,9,11,13,15,17,19 /mod_base = “2′-O-methyl corresponding nucleoside”; modified_base 6 /mod_base = “2′-3′ seco corresponding nucleotide”; modified_base 21 /mod_base = “5′-phosphorothioate corresponding nucleotide”; Hif2alpha RNAi agent sense strand; modified_base 1,3,5,7,9,11,13,15,17,19 /mod_base = “2′-deoxy-2′-fluoro corresponding nucleoside”; modified_base 2,4,6,8,10,12,14,16,18 /mod_base = “2′-O-methyl corresponding nucleoside”; modified_b)”: under setting [1], the “Relative Expression day 4 (Hif2α mRNA in kidney tumor)” value was found to be 0.94.

Consider “AD01027 (antisense TAAAUCGUUACGUUGACAGTT; sense CUGUCAACGUAACGAUUUAT; Hif2alpha RNAi agent antisense strand; modified_base 2,4,6,8,10,12,14,16,18 /mod_base = “2′-deoxy-2′-fluoro corresponding nucleoside”; modified_base 3,5,9,11,13,15,17,19 /mod_base = “2′-O-methyl corresponding nucleoside”; modified_base 7 /mod_base = “2′-3′ seco corresponding nucleotide”; modified_base 21 /mod_base = “5′-phosphorothioate corresponding nucleotide”; Hif2alpha RNAi agent sense strand; modified_base 1,3,5,7,9,11,13,15,17,19 /mod_base = “2′-deoxy-2′-fluoro corresponding nucleoside”; modified_base 2,4,6,8,10,12,14,16,18 /mod_base = “2′-O-methyl corresponding nucleoside”; modified_b)”, for which the “Relative Expression day 4 (Hif2α mRNA in kidney tumor)” value under setting [1] is reported as 0.92. As for “AD01021 (antisense TGUAAAACAAUUGUGUACUTT; sense AGUACACAAUUGUUUUACAT; Hif2alpha RNAi agent antisense strand; modified_base 2,4,6,8,10,12,14,16,18 /mod_base = “2′-deoxy-2′-fluoro corresponding nucleoside”; modified_base 3,5,9,11,13,15,17,19 /mod_base = “2′-O-methyl corresponding nucleoside”; modified_base 7 /mod_base = “2′-3′ seco corresponding nucleotide”; modified_base 21 /mod_base = “5′-phosphorothioate corresponding nucleotide”; Hif2alpha RNAi agent sense strand; modified_base 1,3,5,7,9,11,13,15,17,19 /mod_base = “2′-deoxy-2′-fluoro corresponding nucleoside”; modified_base 2,4,6,8,10,12,14,16,18 /mod_base = “2′-O-methyl corresponding nucleoside”; modified_b)”, the “Relative Expression day 4 (Hif2α mRNA in kidney tumor)” value under setting [1] is given as 0.90. Still for that read-out and setting: for “AD01028 (antisense TAAAUCGUUACGUUGACAGTT; sense CUGUCAACGUAACGAUUUAT; Hif2alpha RNAi agent antisense strand; modified_base 2,4,6,8,10,12,14,16,18 /mod_base = “2′-deoxy-2′-fluoro corresponding nucleoside”; modified_base 3,5,7,9,11,13,15,17,19 /mod_base = “2′-O-methyl corresponding nucleoside”; modified_base 21 /mod_base = “5′-phosphorothioate corresponding nucleotide”; Hif2alpha RNAi agent sense strand; modified_base 1,3,5,7,9,11,13,15,17,19 /mod_base = “2′-deoxy-2′-fluoro corresponding nucleoside”; modified_base 2,4,6,8,10,12,14,16,18 /mod_base = “2′-O-methyl corresponding nucleoside”; modified_base 20 /mod_base = “3′-3′-linked nucleotide”; modified_base 1 /mo)” the value was 0.39.

In the case of “AD01890 (antisense UGUAAAACAAUUGUGUACUTT; sense AGUACACAAUUGUUUUACAT; Hif2alpha RNAi agent antisense strand; modified_base 2,4,6,8,10,13,14,16,18 /mod_base = “2′-deoxy-2′-fluoro corresponding nucleoside”; modified_base 1,3,5,7,9,11,12,15,17,19 /mod_base = “2′-O-methyl corresponding nucleoside”; modified_base 2,3,21 /mod_base = “5′-phosphorothioate corresponding nucleotide”; Hif2alpha RNAi agent sense strand; modified_base 1,3,5,8,9,11,13,15,17,19 /mod_base = “2′-deoxy-2′-fluoro corresponding nucleoside”; modified_base 2,4,6,7,10,12,14,16,18 /mod_base = “2′-O-methyl corresponding nucleoside”; modified_base 20 /mod_base = “3′-3′-linked nucleotide”; modified_base)”, the “Relative Expression day 4 (Hif2α mRNA in kidney tumor)” value (RNAi trigger 100 μg, polymer 064 250 μg) was 0.256. Consider “AD01024 (antisense TCUAGCAACAAAACCUUAATT; sense UUAAGGUUUUGUUGCUAGAT; Hif2alpha RNAi agent antisense strand; modified_base 2,4,6,8,10,12,14,16,18 /mod_base = “2′-deoxy-2′-fluoro corresponding nucleoside”; modified_base 3,5,9,11,13,15,17,19 /mod_base = “2′-O-methyl corresponding nucleoside”; modified_base 7 /mod_base = “2′-3′ seco corresponding nucleotide”; modified_base 21 /mod_base = “5′-phosphorothioate corresponding nucleotide”; Hif2alpha RNAi agent sense strand; modified_base 1,3,5,7,9,11,13,15,17,19 /mod_base = “2′-deoxy-2′-fluoro corresponding nucleoside”; modified_base 2,4,6,8,10,12,14,16,18 /mod_base = “2′-O-methyl corresponding nucleoside”; modified_b)”, for which the “Relative Expression day 4 (Hif2α mRNA in kidney tumor)” value under setting [1] turned out to be 0.51.
